Source: ChEMBL document CHEMBL1201862, “PubChem BioAssay data set” (2004)
The source made the active and inactive calls.

Columns and labels:
[1] = molecular target: T1, Calpain-2 catalytic subunit (Sus scrofa, UniProt P43367); experiment: m-calpain protease blockers, concentration series – biochemical, fluorogenic peptide substrate, dose response (AID 1420); format: functional
T1 sequence (P43367 whole entry): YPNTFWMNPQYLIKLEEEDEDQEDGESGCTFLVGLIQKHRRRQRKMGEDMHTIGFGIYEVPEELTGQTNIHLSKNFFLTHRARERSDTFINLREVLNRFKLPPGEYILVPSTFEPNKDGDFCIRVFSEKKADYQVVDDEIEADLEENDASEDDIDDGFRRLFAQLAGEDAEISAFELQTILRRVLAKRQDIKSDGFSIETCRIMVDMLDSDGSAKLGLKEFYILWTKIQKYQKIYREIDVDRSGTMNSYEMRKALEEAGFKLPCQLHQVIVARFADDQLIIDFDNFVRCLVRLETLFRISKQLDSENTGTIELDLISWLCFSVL

[2] = molecular target: Cytochrome P450 2C9 (Homo sapiens, UniProt P11712)
Chain of Cytochrome P450 2C9 (P11712 whole entry): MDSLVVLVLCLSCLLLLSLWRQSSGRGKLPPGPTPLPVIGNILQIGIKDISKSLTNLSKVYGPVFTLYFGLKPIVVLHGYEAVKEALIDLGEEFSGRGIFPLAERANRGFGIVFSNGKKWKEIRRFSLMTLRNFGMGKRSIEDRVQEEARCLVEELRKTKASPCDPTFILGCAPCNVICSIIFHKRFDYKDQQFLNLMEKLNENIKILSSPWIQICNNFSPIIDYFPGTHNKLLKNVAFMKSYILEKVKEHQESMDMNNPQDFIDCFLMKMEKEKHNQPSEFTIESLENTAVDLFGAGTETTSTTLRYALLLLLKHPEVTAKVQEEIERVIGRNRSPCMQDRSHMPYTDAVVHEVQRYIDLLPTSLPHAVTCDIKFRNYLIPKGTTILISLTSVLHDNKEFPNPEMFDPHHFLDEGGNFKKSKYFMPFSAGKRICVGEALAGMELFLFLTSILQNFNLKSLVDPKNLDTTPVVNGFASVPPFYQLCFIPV

[3] = fluconazole-exposed Candida albicans growth modulators – fluorescence, retest, confirmation (AID 2467); format: functional, cell-based
[4] = NIH-3T3 fibroblast cytotoxicity, dose response, cytotoxicity control, cell-based, fluorescence, Alamar Blue, secondary assay (AID 2327); format: functional;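 also: NIH-3T3 mouse fibroblasts cultured with fluconazole at 8 µg/mL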
[5] = molecular target: Cytochrome P450 2D6 (Homo sapiens, UniProt P10635);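 also: CYP2D6 member of a cytochrome P450 panel assay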
Chain of Cytochrome P450 2D6 (P10635 whole entry, the tested form may be a part): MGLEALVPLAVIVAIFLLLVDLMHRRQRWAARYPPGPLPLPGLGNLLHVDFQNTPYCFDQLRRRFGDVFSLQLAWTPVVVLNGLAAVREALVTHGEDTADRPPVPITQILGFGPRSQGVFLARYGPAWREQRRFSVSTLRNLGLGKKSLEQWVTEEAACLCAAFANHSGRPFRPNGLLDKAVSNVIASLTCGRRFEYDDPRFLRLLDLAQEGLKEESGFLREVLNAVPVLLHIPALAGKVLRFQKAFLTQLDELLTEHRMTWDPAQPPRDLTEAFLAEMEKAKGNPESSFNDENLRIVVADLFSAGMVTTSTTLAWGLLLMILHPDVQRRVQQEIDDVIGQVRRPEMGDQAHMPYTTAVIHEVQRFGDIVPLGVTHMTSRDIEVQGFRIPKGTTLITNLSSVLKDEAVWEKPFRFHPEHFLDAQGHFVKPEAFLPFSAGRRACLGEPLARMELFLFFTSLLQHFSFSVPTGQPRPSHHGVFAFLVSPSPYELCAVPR

[6] = molecular target: T2, Polyadenylate-binding protein 1 (Homo sapiens, UniProt P11940); experiment: MLLE domain peptide-binding blockers, IC50 – biochemical, fluorescence polarization, FITC-PAM2 peptide, dose response (AID 602259); format: functional; details: read-out: IC50_Mean
T2 sequence (P11940 whole entry, the tested form may be a part): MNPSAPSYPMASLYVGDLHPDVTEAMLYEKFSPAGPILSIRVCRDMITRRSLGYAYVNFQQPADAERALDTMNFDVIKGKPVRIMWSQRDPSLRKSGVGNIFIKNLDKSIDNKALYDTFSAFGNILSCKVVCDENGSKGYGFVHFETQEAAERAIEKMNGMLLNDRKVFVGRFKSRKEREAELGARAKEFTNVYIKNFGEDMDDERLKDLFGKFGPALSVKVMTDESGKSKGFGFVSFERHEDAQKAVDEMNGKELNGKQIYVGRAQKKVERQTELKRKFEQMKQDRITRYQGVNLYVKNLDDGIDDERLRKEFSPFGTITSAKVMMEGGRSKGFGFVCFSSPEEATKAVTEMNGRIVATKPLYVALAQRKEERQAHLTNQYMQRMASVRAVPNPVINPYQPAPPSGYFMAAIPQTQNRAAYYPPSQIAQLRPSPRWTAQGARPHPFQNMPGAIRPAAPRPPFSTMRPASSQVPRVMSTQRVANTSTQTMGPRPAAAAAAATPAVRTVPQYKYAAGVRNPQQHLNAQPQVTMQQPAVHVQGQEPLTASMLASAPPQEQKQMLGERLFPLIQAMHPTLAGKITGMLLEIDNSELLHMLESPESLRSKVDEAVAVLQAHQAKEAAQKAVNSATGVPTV

[7] = molecular target: T2, Polyadenylate-binding protein 1; experiment: MLLE binding blockers, Cy5 peptide tracer – biochemical, fluorescence polarization, Cy5-PAM2 peptide, secondary, miRNA deadenylation inhibitor project, dose response (AID 602260); format: functional; details: read-out: IC50_Mean
[8] = molecular target: Cytochrome P450 2C19 (Homo sapiens, UniProt P33261); experiment: Cytochrome panel assay with activity outcomes. Panel member name: p450-cyp2c19 Compounds with AC50 equal or less than 10 uM are considered active; format: functional
Chain of Cytochrome P450 2C19 (P33261 whole entry): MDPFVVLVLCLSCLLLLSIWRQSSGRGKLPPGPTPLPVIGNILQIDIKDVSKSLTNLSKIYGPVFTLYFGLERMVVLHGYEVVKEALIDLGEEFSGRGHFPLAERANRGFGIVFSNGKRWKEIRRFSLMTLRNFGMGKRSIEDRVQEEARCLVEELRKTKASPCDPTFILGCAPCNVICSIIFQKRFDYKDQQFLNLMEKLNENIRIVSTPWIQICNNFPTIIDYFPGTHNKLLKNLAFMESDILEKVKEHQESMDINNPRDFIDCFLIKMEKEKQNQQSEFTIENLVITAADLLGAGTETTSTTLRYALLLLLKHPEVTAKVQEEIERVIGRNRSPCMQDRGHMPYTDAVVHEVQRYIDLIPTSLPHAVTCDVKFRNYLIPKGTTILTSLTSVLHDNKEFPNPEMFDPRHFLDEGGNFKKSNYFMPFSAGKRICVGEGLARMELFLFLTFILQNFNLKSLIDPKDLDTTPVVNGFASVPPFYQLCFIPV

[9] = molecular target: T3, Cytochrome P450 1A2 (Homo sapiens, UniProt P05177);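 also: PubChem cytochrome P450 panel assay, CYP1A2 panel member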
T3 sequence (P05177 whole entry): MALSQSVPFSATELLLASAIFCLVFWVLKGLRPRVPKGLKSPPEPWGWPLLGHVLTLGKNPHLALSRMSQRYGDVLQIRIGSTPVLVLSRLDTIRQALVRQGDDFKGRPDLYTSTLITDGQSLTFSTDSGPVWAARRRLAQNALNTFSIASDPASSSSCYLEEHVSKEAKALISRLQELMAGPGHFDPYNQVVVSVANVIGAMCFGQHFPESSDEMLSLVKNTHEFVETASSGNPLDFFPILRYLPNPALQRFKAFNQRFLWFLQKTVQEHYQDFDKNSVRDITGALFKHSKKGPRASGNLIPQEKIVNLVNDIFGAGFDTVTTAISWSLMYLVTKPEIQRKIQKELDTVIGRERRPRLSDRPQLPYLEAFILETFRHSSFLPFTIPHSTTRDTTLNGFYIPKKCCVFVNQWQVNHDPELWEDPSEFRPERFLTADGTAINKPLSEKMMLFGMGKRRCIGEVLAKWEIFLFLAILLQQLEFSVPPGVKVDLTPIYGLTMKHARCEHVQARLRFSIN

[10] = molecular target: T4, Replicative DNA helicase DnaB (Mycobacterium tuberculosis, UniProt P9WMR3); experiment: DnaB intein splicing inhibitors, dose response, biochemical, cell-free fluorescence (AID 449749); format: functional
T4 sequence (P9WMR3 whole entry): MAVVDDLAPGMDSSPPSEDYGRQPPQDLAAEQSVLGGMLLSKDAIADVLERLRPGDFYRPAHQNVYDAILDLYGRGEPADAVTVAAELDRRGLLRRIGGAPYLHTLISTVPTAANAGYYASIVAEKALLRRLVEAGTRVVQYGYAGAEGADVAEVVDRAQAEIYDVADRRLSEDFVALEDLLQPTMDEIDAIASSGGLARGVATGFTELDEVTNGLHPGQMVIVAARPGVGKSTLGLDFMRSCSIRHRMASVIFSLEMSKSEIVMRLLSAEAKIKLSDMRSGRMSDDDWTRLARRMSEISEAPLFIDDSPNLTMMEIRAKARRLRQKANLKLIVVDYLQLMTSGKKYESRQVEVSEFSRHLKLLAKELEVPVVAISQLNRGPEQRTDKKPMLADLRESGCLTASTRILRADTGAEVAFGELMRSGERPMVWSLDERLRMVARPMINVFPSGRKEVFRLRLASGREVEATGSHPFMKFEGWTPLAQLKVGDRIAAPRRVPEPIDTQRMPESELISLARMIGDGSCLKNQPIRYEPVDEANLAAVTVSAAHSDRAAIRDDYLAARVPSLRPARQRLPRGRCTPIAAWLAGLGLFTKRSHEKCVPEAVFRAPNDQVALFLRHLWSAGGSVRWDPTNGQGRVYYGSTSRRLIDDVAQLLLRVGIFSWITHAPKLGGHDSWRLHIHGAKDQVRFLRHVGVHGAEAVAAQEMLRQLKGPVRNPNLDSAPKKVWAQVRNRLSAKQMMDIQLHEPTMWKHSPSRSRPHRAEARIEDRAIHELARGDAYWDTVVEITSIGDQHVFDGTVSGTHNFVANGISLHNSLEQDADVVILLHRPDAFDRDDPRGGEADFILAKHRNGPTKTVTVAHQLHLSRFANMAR

[11] = molecular target: T5, Protein RecA (Mycobacterium tuberculosis, UniProt P9WHJ3); experiment: Fluorescence Cell-Free Homogeneous Dose Retest to Identify Inhibitors of RecA-Intein Splicing Activity. [Related pubchem assays (depositor defined):AID2097, AID2223, AID489010, AID492950]; format: functional
T5 sequence (P9WHJ3 whole entry): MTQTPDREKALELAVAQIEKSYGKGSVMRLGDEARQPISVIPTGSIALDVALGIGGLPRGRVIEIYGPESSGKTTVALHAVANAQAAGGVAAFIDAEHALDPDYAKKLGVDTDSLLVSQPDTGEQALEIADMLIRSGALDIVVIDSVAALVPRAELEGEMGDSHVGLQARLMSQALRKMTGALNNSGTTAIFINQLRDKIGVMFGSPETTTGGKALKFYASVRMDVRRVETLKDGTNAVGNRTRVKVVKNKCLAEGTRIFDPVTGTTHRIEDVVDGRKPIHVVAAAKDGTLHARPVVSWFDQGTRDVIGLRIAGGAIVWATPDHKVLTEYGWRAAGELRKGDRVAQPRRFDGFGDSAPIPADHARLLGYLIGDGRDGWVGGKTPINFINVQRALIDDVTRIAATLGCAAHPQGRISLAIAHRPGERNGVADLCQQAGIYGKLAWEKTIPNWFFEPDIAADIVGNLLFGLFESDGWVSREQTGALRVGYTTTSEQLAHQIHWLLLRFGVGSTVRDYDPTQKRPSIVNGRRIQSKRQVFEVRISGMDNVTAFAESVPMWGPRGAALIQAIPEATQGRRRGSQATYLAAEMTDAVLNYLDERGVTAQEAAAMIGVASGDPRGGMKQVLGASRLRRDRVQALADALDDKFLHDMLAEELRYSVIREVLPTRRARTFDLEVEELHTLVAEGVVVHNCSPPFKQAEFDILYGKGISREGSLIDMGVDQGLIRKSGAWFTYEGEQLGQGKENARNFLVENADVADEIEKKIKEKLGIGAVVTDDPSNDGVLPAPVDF

[12] = cells; format: functional, cell-based
[13] = cells; format: functional, cell-based; remark: listed apart in the source
[14] = molecular target: Cytochrome P450 3A4 (Homo sapiens, UniProt P08684);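 also: CYP3A4 tested as one member of a cytochrome P450 panel screen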
Chain of Cytochrome P450 3A4 (P08684 whole entry): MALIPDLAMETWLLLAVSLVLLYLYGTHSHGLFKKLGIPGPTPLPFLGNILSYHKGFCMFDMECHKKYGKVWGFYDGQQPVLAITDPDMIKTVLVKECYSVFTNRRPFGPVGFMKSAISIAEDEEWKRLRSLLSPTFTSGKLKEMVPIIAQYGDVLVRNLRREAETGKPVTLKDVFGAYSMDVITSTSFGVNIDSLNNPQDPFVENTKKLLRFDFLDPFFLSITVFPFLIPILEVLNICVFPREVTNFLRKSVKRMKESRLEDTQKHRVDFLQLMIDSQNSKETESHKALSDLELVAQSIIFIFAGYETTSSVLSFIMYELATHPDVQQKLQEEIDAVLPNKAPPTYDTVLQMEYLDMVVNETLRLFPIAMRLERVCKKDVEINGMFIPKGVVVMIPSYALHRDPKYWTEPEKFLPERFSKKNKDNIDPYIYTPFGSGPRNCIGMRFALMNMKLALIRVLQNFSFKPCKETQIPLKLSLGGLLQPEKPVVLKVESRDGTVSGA

[15] = P. falciparum Dd2 growth inhibitors, dose response, SYBR Green, cherry-picked samples (AID 1159567); format: functional, cell-based

N=C(NNC(=O)c1ccccc1)c1cc2ccccc2oc1=O
IC50 [1]: 48.5 µM (not active)

CC(C)Cn1c(N)c(C(=O)COC(=O)c2cccc(F)c2)c(=O)n(C)c1=O
IC50 [1]: 16.2 µM (not active)

CCOc1cc(C)ccc1OCc1nnc(SCC(=O)c2cccc([N+](=O)[O-])c2)n1CC
AC50 [2]: inconclusive

Cc1c(C(=O)N2CCC(C)CC2)sc2ncnc(N3CCN(c4ccccc4)CC3)c12
IC50 [1]: 19 µM (not active)

O=C(Cc1ccccc1Cl)NCCCn1ccnc1
IC50 [1]: > 50 µM (not active)

COc1ccc(Cl)cc1NC(=O)NCCCl
AC50 [2]: inconclusive

O=C(Oc1ccc(-c2ccccc2)cc1)N1CCCCC1
IC50 [1]: 1.11 µM (not active)

CCOc1ccc(CCNC(=O)CN2CCN(Cc3ccc(F)cc3)C2=O)cc1OCC
IC50 [1]: > 50 µM (not active)

Cc1ccc(SCC(=O)c2sc(-c3ccccc3)nc2C)cc1
IC50 [1]: 6.06 µM (not active)

COC(=O)c1[nH]c2cc(C)ccc2c1NC(=O)CN1CCc2cc(OC)c(OC)cc2C1
EC50 [3]: > 38 µM (not active)
EC50 [4]: > 150 µM (inactive)

COc1ccc2c(Cc3c4ccccc4cc4ccccc34)cncc2c1O
AC50 [2]: inconclusive
AC50 [5]: 3.16 µM (inconclusive)

Cc1ccc(N2C(=O)C3C4C=CC(CN=C(S)Nc5cccc(Cl)c5)(O4)C3C2=O)cc1 (stereo not given)
IC50 [6]: > 66 µM (inactive)
IC50 [7]: > 66 µM (inactive)

CCOc1ccc(NC(=O)NNC(=O)c2cc3ccccc3cc2O)cc1
EC50 [4]: > 150 µM (inactive)

O=C(Nc1ccccn1)c1ccco1
AC50 [2]: inconclusive
AC50 [8]: inconclusive

CCCCOc1cccc(C(=O)NN=C(S)NC2CCCCC2)c1
EC50 [4]: 37.1 µM (active)

CC1Cc2ccccc2N1C(=O)CCN1C(=O)C2C3C=CC(C3)C2C1=O (stereo not given)
AC50 [2]: inconclusive
AC50 [9]: 10 µM (inconclusive)
AC50 ([8]; read-out: AC50): 10 µM (inconclusive)

Cn1nc(C(C)(C)C)cc1C(=O)Sc1cccc(Br)c1
AC50 [10]: 16.4 µM (active)
IC50 [6]: > 66 µM (inactive)
EC50 [11]: 37.1 µM (inconclusive)
IC50 [7]: > 66 µM (inactive)

O=C1c2ccccc2C(=O)N1CC1=CCS(=O)(=O)C1
IC50 [6]: > 66 µM (inactive)
IC50 [7]: > 66 µM (inactive)

COc1ccc(CNc2ccc3c[nH]nc3c2)c(OC)c1OC
AC50 [10]: 2.69 µM (active)
EC50 [11]: 0.797 µM (active)

Cc1ccc(C(=O)NC(=S)Nc2ccc(N3CCN(C(=O)c4ccco4)CC3)cc2)cc1
IC50 [6]: > 66 µM (inactive)
IC50 [7]: > 66 µM (inactive)

Cc1cc(SCC(=O)c2cccs2)nc2c(C)cccc12
AC50 [2]: inconclusive

COc1ccc(N2CCN(C(c3ccccc3)c3nnnn3Cc3ccc(F)cc3)CC2)cc1 (stereo not given)
IC50 [1]: 5 µM (not active)

CSc1nn2c(C(F)(F)F)cc(C(F)(F)F)nc2c1C(=O)O
EC50 [4]: > 160 µM (inactive)

C=COC(=O)CSc1snc(SCC(=O)OC)c1C#N
AC50 [10]: > 380 µM (inactive)
EC50 [11]: 40.1 µM (active)

NN=C(S)Nc1cccc(Cl)c1
EC50 [3]: > 38 µM (not active)
EC50 [4]: > 150 µM (inconclusive)

CCCCNS(=O)(=O)c1ccc(OC)c(Cl)c1Cl
AC50 [2]: inconclusive
AC50 [9]: 4.47 µM (inconclusive)

O=C1CC/[N+](=C\c2ccc(Cl)c(Cl)c2)[N-]1
AC50 [10]: 17.8 µM (active)
EC50 [11]: 8.98 µM (active)

CC1CCCN(C2=C(Cl)C(=O)N(c3cccc(Cl)c3)C2=O)C1 (stereo not given)
AC50 [10]: > 380 µM (inactive)
EC50 [11]: 2.86 µM (active)

CN(Cc1ccccc1)C(=O)CC(=O)N(C)Cc1ccccc1
EC50 [12]: > 350 µM (not active)
EC50 [13]: > 350 µM (not active)

COc1ccc(S(=O)(=O)N(C(=O)C(C)C)c2ccc3oc(=O)sc3c2)cc1
IC50 [6]: > 66 µM (inactive)
IC50 [7]: > 66 µM (inactive)

CC(C)CNCC(=O)N1c2ccccc2Sc2ccccc21.O=C(O)C(=O)O
AC50 [2]: inconclusive
AC50 [5]: 28.2 µM (inconclusive)
AC50 [9]: 15.8 µM (inconclusive)

CCc1ccc(CNC(=O)CCC(=O)N2Cc3cccc(OC)c3Oc3ncccc32)cc1
EC50 [3]: > 38 µM (not active)
EC50 [4]: > 160 µM (inactive)

Cc1cccc(NC(S)=NCc2cccs2)c1
IC50 [1]: > 50 µM (not active)

Cc1cc(C)c(S(=O)(=O)NNC(=O)C2CCN(Cc3ccccc3)CC2)c(C)c1
AC50 [2]: inconclusive
AC50 [14]: 22.4 µM (inconclusive)

Oc1ccc(Br)cc1/C=N/c1cccn2cc(-c3ccccc3)nc12
IC50 [6]: > 66 µM (inactive)
IC50 [7]: > 66 µM (inactive)

CCC/C(=N/NC(=O)c1cccc(Cl)c1)c1ccccc1
EC50 [12]: > 350 µM (not active)
EC50 [13]: > 350 µM (not active)

CC(=O)N1CC[C@@H]2[C@@H](CO)Nc3ccc(C#Cc4ccccc4F)cc3[C@@H]21
AC50 [15]: 10.7 µM (active)

C/C=C/c1ccccc1[C@@H]1[C@@H](CO)N(S(=O)(=O)c2cccc(F)c2)[C@H]1C#N
AC50 [15]: 6.96 µM (active)

COc1ccc2c3c([nH]c2c1)[C@@H](CO)N(Cc1ccccc1)CC31CCN(C(=O)c2cccnc2)CC1
AC50 [15]: 4.55 µM (active)

COc1ccc2c3c([nH]c2c1)[C@H](CO)N(Cc1ccccc1F)CC31CN(C(=O)C2CCC2)C1
AC50 [15]: 7.75 µM (active)
